Series [1] concerns A. fumigatus. The series is described as follows: Fungal hyphae density in lung sections (histopathology) of IPA mice. The format is in vivo, BALB/c mice. The note with it: for fungal hyphae density compared to untreated IPA mice: FIG. 3, histopathology of lung sections. An excerpt:
(§1) The survival rates of the MBL treated and untreated mice were monitored for 15 days (FIG. 1). Among the rest of the mice left in each group, two mice were sacrificed each on 4th and 7th day after fungal exposure and lung tissues were collected for histopathology and counting the colony forming units of the fungus (CFUs). For estimating the pulmonary fungal load and hyphae density of the mice, lungs were aseptically removed from each group of mice sacrificed on the 4th and 7th day, after the spore challenge. A portion of the lung tissue (10 mg) was homogenized with a mechanical homogenizer for 1 min in sterile PBS. The suspension was serially diluted 2-fold and incubated in triplicates on Sabouraud Agar (SDA) plates at 37° C. A. fumigatus colonies were counted after 24 hrs incubation and the values represent average±standard deviation of six data points (three from each dilution). The number of Colony forming units (CFUs) that appeared on the plates corresponds to the pulmonary fungal load of different groups. […] The other portion of the lung was kept in 10% formalin for histopathological studies of the lung sections.
For visualization of the fungal hyphae in the lungs of the mice, a portion of the lungs collected from the mice sacrificed on 4th and 7th day from treated and untreated groups after spore challenge and trimmed of extraneous tissue was kept in 10% formalin for histopathological studies and stored at 4° C. The tissue sections, made using a microtome and stained with hematoxylin and eosin, were examined at the magnification of 40×.

The subject of series [2] is A. fumigatus. As to the kind of experiment: Survival of immunosuppressed IPA mice monitored for 15 days. The series is classed as in vivo, BALB/c mice. The note with it: for survival / survival rate: IPA mice. As for the experimental part: For preparation of animal models of invasive pulmonary aspergillosis, BALB/c mice were divided into various experimental and control groups and subgroups as shown in Table I.
The BALB/c mice were immunosuppressed by three intradermal injections of 2.5 mg of hydrocortisone acetate (Wycort) per 20 g mouse per day 1 day before, the day of, and the day after spore challenge.
On the day of spore challenge (day 0), mice were lightly anesthesized with ether and 10^8 spores of A. fumigatus in 50 μl of sterile saline were administered intranasally in the groups of IPA mice, while 50 μl of saline alone was administered to the untreated control mice. The MBL-treated control and IPA mice received 1 μg of MBL in 50 μl of saline per mouse on day 1, and the groups of untreated control and untreated IPA mice received 50 μl of saline alone intranasally on day 1.
as §1
The animal model of invasive pulmonary aspergillosis is prepared by known methods of the immunosuppression of the mice (Allen et al, 1994) followed by exposure to A. fumigatus spores. The mice were immunosuppressed by three intradermal injections of 2.5 mg of hydrocortisone acetate (Wycort) per 20 g of mouse per day one day before, the day of, and the day after spore challenge (day −1, 0, +1).
On the day of spore challenge (day 0), mice were lightly anesthesized with ether and 10^8 spores of A. fumigatus in 50 μl of sterile saline were administered intranasally in the groups of IPA mice, while 50 μl of saline alone was administered to the untreated control mice.
The administration of different concentrations of purified human rMBL (1-5 µg/mice) in saline intranasally to different groups of mice is described in Table I. The animal models of invasive pulmonary aspergillosis and their respective controls were given treatment with rMBL and amphotericin B. The amphotericin B treated mice acted as the positive control, since amphotericin B is a standard known antifungal agent.
(§2) The 1 µg rMBL-treated control and IPA mice received 1 μg of rMBL in 50 μl of saline per mouse on day 1. Similarly, 3 μg rMBL-treated control and IPA mice received 3 μg of rMBL in 50 μl of saline per mouse on day 1 and 5 µg rMBL-treated control and IPA mice received 5 μg of rMBL in 50 μl of saline per mouse on day 1. The AmB-treated control and IPA mice received AmB (134.6 μg) only on day 1. The groups of untreated control and untreated IPA mice received 50 μl of saline without rMBL intranasally on day 1.
(§3) Different groups of mice were monitored for 15 days for survival and thereby their survival rate was calculated.

The subject of series [3] is A. fumigatus. The series is described as follows: Pulmonary fungal load (CFU counts in lung homogenate) in IPA mice. The format is in vivo, BALB/c mice. The note with it: for fungal load: description.
Text: as §1
For estimating the pulmonary fungal load and hyphae density of the mice, lungs were aseptically removed from each group of mice sacrificed on the 4th and 7th day, after the spore challenge. A portion of the lung tissue (10 mg) was homogenized with a mechanical homogenizer for 1 min in sterile PBS. The suspension was serially diluted 2-fold and incubated in triplicate on Sabauraud Agar (SDA) plates at 37° C. A. fumigatus colonies were counted after 24 hrs incubation and the values represent average±standard deviation of six data points (three from each dilution). The number of Colony forming units (CFUs) that appeared on the plates corresponds to the pulmonary fungal load of different groups.

The nature of series [4]: Survival of immunosuppressed control mice that received no spores. The series is classed as in vivo, BALB/c mice. As for the experimental part: as §2, §3
The subject of a further series is A. fumigatus conidia. The note with it: in vitro, purified human MBL; cited from earlier work.
Where [5] appears, read: Example 6, PBS pH 7.2, treated with AmB or rMBL.
Where [6] appears, read: Example 7, PBS pH 7.4, treated with AmB or rMBL.
The mark [7] stands for this setting: Example 8, TBS pH 7.6, treated with AmB or rMBL.
[8] abbreviates: Example 9, TBS pH 8.0, treated with AmB or rMBL.
Where [9] appears, read: Example 6, PBS pH 7.2, rMBL 1-5 μg/mice.
The mark [10] stands for this setting: Example 8, TBS pH 7.6, rMBL 1-5 μg/mice.
The mark [11] stands for this setting: Example 9, TBS pH 8.0, rMBL 1-5 ug/mice.

“Also recorded” adds a separate entry of the source.

Take `C[C@@H]1[C@H](O)[C@@H](C)/C=C/C=C/C=C/C=C/C=C/C=C/C=C/[C@H](O[C@@H]2O[C@H](C)[C@@H](O)[C@H](N)[C@@H]2O)C[C@@H]2O[C@](O)(C[C@@H](O)C[C@@H](O)[C@H](O)CC[C@@H](O)C[C@@H](O)CC(=O)O[C@H]1C)C[C@H](O)[C@H]2C(=O)O` [AmB, Amphotericin B, reference compound]: in the series with A. fumigatus [1], the “fungal hyphae density compared to untreated IPA mice” value is recorded as “decreases; also recorded: drastic decrease”. Moreover, the survival in the series on A. fumigatus [2] (Example 6, PBS pH 7.2, AmB 134.6 μg on day 1) was found to be 80%; in the series with A. fumigatus [2] (Example 7, PBS pH 7.4, AmB 134.6 μg on day 1), 80%; in the series on A. fumigatus [2] (Example 8, TBS pH 7.6, AmB 134.6 μg on day 1), 80%; with A. fumigatus [2] (Example 9, TBS pH 8.0, AmB 134.6 μg on day 1), 80%. In the series on A. fumigatus [2] (FIG. 1, amphotericin B (134.6 μg) on day 1), the survival rate stood at 80%. For the same compound, in the series on A. fumigatus [3] (Example 7, PBS pH 7.4, 4th day after spore challenge, AmB 134.6 μg), the “CFUs in the lung homogenates” value is 5.65±0.07 CFUs×10^6/gm of lung tissue. For the same compound, the fungal load in the series with A. fumigatus [3] (FIG. 2, amphotericin B treated IPA mice) is 5.65±0.07 CFUs×10^6/gm of lung tissue. The “survival of control mice” value in series [4] (setting [5]), in series [4] (setting [6]), in series [4] (setting [7]) and in series [4] (setting [8]) was 100% each time.

“rMBL: purified human recombinant mannan-binding lectin (MBL) protein, in solution form produced by recombinant technology”: in the series on A. fumigatus conidia, the “concentration range that most effectively mediates the killing of the fungus” value is 1 to 5 µg/mL. Also, the “fungal hyphae density in the lungs compared to untreated IPA mice” value in the series on A. fumigatus [1] (Example 6, PBS pH 7.2) is listed as “decrease”; in the series with A. fumigatus [1] (Example 7, PBS pH 7.4, FIG. 3), “decrease”; in the series with A. fumigatus [1] (Example 8, TBS pH 7.6) it was “decrease”; in the series on A. fumigatus [1] (Example 9, TBS pH 8.0), “decrease”. In addition, the “fungal hyphae density compared to untreated IPA mice” value in the series on A. fumigatus [1] (listed as MBL) is “decreases; also recorded: drastic decrease”. In addition, the survival is given as 80% in the series with A. fumigatus [2] (Example 6, PBS pH 7.2, 1 μg rMBL intranasally day 1); 80% in the series with A. fumigatus [2] (Example 6, PBS pH 7.2, 3 μg rMBL intranasally day 1); 40% in the series with A. fumigatus [2] (Example 6, PBS pH 7.2, 5 μg rMBL intranasally day 1); 80% with A. fumigatus [2] (Example 7, PBS pH 7.4, 1 μg rMBL intranasally day 1); 40% in the series on A. fumigatus [2] (Example 7, PBS pH 7.4, 5 μg rMBL intranasally day 1); 80% in the series on A. fumigatus [2] (Example 8, TBS pH 7.6, 1 μg rMBL intranasally day 1). The survival with A. fumigatus [2] (Example 8, TBS pH 7.6, 5 μg rMBL intranasally day 1) is given as 40%; with A. fumigatus [2] (Example 9, TBS pH 8.0, 1 μg rMBL intranasally day 1) it was 80%; in the series on A. fumigatus [2] (Example 9, TBS pH 8.0, 5 μg rMBL intranasally day 1), 40%. The “percentage of survival, change in treated IPA mice” value in the series on A. fumigatus [2] (setting [9]) was “increase”; in the series on A. fumigatus [2] (Example 7, PBS pH 7.4, rMBL 1-5 μg/mice, FIG. 1), “increase”; with A. fumigatus [2] (setting [10]) it was “increase”; in the series on A. fumigatus [2] (setting [11]), “increase”. Also, the survival rate with A. fumigatus [2] (FIG. 1, 1 µg MBL intranasally on day 1) was found to be 80%; in the series with A. fumigatus [2] (FIG. 1, 3 µg MBL intranasally on day 1), 80%. The “pulmonary fungal load compared to untreated IPA mice” value is “reduction” in the series on A. fumigatus [3] (setting [9]); “reduction” with A. fumigatus [3] (Example 7, PBS pH 7.4, rMBL 1-5 μg/mice); “reduction” in the series with A. fumigatus [3] (setting [10]); “reduction” in the series on A. fumigatus [3] (setting [11]). In addition, the “CFUs in the lung homogenates” value is given as 4.6±0.5 CFUs×10^6/gm of lung tissue in the series with A. fumigatus [3] (Example 7, PBS pH 7.4, 4th day after spore challenge, 1 μg rMBL); 4.2±0.4 CFUs×10^6/gm of lung tissue in the series with A. fumigatus [3] (Example 7, PBS pH 7.4, 4th day after spore challenge, 3 μg rMBL); 6.4±0.5 CFUs×10^6/gm of lung tissue in the series on A. fumigatus [3] (Example 7, PBS pH 7.4, 4th day after spore challenge, 5 μg rMBL). Further, the “pulmonary fungal load, CFU counts” value with A. fumigatus [3] (FIG. 2, 4th day after spore challenge, 3 µg MBL treated IPA mice) is given as 4.2±0.4 CFU counts per gram of the lung tissue. Besides, the fungal load with A. fumigatus [3] (FIG. 2, 1 µg MBL treated IPA mice) was 4.6±0.5 CFUs×10^6/gm of lung tissue; in the series on A. fumigatus [3] (FIG. 2, 3 µg MBL treated IPA mice), 4.2±0.4 CFUs×10^6/gm of lung tissue. Moreover, the “survival of control mice” value in series [4] (setting [5]), in series [4] (setting [6]), in series [4] (setting [7]) and in series [4] (setting [8]) was 100% in each case.

Source of the values: patent publication US20090088364A1, “Pharmaceutical composition useful for the treatment of invasive pulmonary aspergillosis” (priority 2004, published 2009).
